ChEMBL document CHEMBL1201862, “PubChem BioAssay data set” (2004)
Active and inactive are the calls of the source.

Experiments:
[1] = target: Mothers against decapentaplegic homolog 3 (Homo sapiens, UniProt P84022); assay: blockers of Smad3 complex formation in lysate – cell lysate, secondary confirmation, chemiluminescent ELISA, HEK293 lysate, dose response (AID 1058); type: functional
HeLa = assay: viability loss in HeLa cells – cell-based, 24 h, cherry-picked samples, cytotoxicity control, dose response (AID 504726); type: functional; conditions: Homo sapiens;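 also: potency for cytotoxicity as loss of luminescence signal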
[2] = target: T1, Eukaryotic translation initiation factor 2-alpha kinase 3 (Homo sapiens, UniProt Q9NZJ5); assay: Counterscreen assay for PERK inhibitors: Dose response cell-based high throughput screening assay to measure inhibition of PERK at 6 hours. [Related pubchem assays: 1522, 1416 ]; type: functional
T1 sequence (Q9NZJ5 whole entry): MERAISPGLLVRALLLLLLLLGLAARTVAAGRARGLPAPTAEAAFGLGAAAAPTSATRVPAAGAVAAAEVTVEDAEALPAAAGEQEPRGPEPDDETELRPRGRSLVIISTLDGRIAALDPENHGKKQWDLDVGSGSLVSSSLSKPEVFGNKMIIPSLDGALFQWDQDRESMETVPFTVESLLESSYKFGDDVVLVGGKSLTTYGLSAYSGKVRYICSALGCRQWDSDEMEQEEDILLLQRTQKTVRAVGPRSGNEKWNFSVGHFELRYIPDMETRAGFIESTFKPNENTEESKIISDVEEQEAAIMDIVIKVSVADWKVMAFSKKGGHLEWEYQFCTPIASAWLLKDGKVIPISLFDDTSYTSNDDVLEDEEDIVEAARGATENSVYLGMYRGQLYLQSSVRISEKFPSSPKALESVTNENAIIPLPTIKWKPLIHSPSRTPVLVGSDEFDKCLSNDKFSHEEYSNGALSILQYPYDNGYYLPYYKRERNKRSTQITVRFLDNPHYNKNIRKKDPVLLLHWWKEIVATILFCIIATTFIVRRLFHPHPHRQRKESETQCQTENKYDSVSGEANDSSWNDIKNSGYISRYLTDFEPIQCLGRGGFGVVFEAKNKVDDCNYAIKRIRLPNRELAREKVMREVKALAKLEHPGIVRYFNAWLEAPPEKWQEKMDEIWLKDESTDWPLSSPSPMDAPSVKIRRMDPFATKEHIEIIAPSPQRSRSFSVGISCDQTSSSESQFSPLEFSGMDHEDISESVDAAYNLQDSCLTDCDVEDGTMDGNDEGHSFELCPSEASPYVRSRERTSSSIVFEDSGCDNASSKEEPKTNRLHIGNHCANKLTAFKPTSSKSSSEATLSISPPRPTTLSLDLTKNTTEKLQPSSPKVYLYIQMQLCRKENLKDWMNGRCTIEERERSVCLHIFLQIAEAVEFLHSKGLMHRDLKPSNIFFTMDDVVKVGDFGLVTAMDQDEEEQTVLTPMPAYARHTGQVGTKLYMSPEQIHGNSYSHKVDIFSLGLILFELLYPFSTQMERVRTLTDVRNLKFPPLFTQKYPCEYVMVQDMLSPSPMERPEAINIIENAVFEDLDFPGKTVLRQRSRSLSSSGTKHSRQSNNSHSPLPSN

[3] = target: T1, Eukaryotic translation initiation factor 2-alpha kinase 3; assay: Dose response cell-based high-throughput screening assay to measure PERK inhibition. [Related pubchem assays: 1416 ]; type: functional
Streptococcus = assay: GAS UMAA2166 growth inhibition – luminescence, BacTiterGlo, counter-screen for streptokinase expression inhibitor project, dose response (AID 1915); type: functional, organism-based;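 also: potency for reduction of bacterial viability or growth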
Streptokinase A = target: T2, Streptokinase A (Streptococcus pyogenes serotype M1, UniProt P10520); assay: viability-normalized secreted streptokinase activity reduction – plasminogen activation absorbance, OD405, dose response (AID 1914); type: functional, Streptococcus pyogenes M1 GAS;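 also: secreted streptokinase activity via plasminogen activation per viability signal from cell pellet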
T2 sequence (P10520 whole entry): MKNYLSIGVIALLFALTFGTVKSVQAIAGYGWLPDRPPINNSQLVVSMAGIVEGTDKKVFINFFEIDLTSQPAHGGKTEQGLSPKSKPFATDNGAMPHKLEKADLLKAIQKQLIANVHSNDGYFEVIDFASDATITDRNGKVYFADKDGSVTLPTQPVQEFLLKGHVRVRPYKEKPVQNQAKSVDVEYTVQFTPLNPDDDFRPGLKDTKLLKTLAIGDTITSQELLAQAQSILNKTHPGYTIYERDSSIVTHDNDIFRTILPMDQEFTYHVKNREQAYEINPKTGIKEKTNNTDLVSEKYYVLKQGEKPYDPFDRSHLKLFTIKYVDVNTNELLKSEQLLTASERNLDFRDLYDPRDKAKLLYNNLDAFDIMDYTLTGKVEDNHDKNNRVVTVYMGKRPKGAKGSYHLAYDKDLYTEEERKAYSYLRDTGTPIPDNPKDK

[4] = test system: Streptococcus sp. 'group A'; assay: Streptococcus pyogenes SK(-)GAS viability under kanamycin – luminescence, BacTiterGlo, confirmation, counter-screen for streptokinase expression inhibitor project, dose response (AID 1900); type: functional, organism-based
Hexokinase HKDC1 = target: T3, Hexokinase HKDC1 (Homo sapiens, UniProt Q2TB90); assay: inhibition of HKDC1 glucose phosphorylation – biochemical, W721R variant, dose response (AID 504729); type: functional
T3 sequence (Q2TB90 whole entry): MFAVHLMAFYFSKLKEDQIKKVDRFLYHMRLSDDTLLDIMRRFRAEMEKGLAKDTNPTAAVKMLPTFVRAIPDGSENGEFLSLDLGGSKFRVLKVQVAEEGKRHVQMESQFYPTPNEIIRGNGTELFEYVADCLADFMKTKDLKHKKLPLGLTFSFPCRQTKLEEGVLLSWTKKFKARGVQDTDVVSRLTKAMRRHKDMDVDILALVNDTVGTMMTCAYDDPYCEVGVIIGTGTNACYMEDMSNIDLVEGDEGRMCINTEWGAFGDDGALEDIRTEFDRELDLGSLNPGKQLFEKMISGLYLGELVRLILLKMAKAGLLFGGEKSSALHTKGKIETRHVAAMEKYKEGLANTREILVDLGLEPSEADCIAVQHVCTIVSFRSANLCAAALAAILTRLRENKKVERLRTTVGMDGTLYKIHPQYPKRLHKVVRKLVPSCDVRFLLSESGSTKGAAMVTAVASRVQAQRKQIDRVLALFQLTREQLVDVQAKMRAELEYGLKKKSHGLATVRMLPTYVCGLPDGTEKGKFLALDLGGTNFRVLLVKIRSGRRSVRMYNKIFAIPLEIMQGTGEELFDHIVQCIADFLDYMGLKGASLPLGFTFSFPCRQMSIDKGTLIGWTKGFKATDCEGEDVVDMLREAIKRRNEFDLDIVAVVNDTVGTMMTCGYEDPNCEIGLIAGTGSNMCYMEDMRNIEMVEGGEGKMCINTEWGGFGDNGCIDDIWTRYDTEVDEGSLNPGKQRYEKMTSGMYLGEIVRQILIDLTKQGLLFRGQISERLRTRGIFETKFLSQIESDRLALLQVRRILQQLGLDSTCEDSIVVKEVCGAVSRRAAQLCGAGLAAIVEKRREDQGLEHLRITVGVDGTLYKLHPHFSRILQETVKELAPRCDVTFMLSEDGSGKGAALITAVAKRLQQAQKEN

[5] = viability loss in MITF-independent A375 cells – cell-based, CellTiter-Glo luminescence, dry powder, set 2, counter-screen for MITF inhibitor project, dose response (AID 624489); type: functional; conditions: A-375;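 also: actives are compounds lowering A375 viability meaning general cytotoxicity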
[6] = A Cell Based Secondary Assay To Explore Cytotoxicity of Compounds that Sensitize Mycobacterium Tuberculosis to Beta-Lactam Antibiotics.; type: functional
[7] = cytotoxicity in MITF-independent A375 cells – cell-based, CellTiter-Glo luminescence, dry powder, set 4, counter-screen for MITF inhibitor project, dose response (AID 624364); type: functional; conditions: A-375;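 also: A375 melanoma cells are MITF independent so this is a counter screen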
[8] = target: T4, Microphthalmia-associated transcription factor (Homo sapiens, UniProt O75030); assay: reducers of TRPM1 reporter luminescence, concentration series – cell-based, SK-MEL-5, cherry-picked, set 3, MITF inhibitor project, dose response (AID 493073); type: functional;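 also: SK-MEL-5 melanoma cells with luciferase driven by the MITF target TRPM1 promoter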
T4 sequence (O75030 whole entry): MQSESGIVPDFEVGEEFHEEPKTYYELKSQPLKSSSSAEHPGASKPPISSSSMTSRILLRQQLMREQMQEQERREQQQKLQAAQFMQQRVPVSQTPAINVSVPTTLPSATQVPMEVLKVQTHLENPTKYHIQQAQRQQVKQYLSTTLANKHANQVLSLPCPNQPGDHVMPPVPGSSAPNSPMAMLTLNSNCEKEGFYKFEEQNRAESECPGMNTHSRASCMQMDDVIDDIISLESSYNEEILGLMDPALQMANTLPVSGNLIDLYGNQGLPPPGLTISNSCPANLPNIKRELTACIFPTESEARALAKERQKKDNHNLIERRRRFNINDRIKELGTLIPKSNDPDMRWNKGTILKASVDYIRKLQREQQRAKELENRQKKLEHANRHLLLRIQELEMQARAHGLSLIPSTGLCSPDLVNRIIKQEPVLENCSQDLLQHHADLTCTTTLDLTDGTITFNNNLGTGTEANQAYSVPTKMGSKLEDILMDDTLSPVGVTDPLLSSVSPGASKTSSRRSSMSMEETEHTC

[9] = Luminescence Cell-Based Dose Retest to Confirm Inhibitors of Cancer Stem Cells. [Related pubchem assays (depositor defined):AID2717, AID2721]; type: functional; conditions: Homo sapiens
[10] = target: T5, Alkaline phosphatase, tissue-nonspecific isozyme (Homo sapiens, UniProt P05186)
T5 sequence (P05186 whole entry): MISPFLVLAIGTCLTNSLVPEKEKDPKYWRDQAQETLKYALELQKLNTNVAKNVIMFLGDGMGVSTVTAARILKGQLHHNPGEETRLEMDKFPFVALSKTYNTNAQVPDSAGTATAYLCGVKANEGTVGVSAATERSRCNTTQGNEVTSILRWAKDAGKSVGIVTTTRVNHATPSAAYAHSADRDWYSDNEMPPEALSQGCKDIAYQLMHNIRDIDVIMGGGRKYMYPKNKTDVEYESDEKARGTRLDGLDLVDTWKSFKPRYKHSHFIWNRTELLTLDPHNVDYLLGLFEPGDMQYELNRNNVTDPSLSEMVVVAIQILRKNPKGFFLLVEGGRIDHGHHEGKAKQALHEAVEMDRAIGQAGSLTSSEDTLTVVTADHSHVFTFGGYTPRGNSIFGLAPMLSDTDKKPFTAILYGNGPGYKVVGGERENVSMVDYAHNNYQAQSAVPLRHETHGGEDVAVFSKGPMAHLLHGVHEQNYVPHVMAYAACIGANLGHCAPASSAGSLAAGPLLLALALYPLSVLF

Cytochrome P450 2C9 = Cytochrome P450 2C9 (Homo sapiens, UniProt P11712)
Cytochrome P450 2C19 = Cytochrome P450 2C19 (Homo sapiens, UniProt P33261); assay: Cytochrome panel assay with activity outcomes. Panel member name: p450-cyp2c19 Compounds with AC50 equal or less than 10 uM are considered active; type: functional; conditions: read-out: AC50
Sequence of Cytochrome P450 2C19 (P33261 whole entry): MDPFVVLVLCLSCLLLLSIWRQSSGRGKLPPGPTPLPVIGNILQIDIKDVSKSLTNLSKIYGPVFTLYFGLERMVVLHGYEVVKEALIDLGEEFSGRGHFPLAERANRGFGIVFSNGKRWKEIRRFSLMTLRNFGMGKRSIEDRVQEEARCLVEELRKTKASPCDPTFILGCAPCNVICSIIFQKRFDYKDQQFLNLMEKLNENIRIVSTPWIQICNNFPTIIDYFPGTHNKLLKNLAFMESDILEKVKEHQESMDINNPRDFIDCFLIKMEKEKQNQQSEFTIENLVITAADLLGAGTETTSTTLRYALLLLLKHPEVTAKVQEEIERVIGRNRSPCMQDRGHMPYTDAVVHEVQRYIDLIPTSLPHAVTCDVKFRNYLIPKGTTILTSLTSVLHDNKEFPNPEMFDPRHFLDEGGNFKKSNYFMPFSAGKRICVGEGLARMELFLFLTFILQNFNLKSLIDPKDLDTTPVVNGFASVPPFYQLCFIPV

Sequence of Mothers against decapentaplegic homolog 3 (P84022 whole entry): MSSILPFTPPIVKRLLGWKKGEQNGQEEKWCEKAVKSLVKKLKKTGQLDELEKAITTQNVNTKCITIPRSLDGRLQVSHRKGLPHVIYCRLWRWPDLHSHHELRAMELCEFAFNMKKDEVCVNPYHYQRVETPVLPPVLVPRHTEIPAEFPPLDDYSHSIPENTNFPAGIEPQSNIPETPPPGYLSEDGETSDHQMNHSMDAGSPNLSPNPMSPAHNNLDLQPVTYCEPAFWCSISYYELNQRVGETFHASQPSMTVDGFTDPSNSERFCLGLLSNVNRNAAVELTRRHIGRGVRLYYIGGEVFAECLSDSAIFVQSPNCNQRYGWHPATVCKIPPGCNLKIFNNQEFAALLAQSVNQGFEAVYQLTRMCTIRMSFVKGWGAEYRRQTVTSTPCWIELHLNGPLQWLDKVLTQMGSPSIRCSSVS
Sequence of Cytochrome P450 2C9 (P11712 whole entry): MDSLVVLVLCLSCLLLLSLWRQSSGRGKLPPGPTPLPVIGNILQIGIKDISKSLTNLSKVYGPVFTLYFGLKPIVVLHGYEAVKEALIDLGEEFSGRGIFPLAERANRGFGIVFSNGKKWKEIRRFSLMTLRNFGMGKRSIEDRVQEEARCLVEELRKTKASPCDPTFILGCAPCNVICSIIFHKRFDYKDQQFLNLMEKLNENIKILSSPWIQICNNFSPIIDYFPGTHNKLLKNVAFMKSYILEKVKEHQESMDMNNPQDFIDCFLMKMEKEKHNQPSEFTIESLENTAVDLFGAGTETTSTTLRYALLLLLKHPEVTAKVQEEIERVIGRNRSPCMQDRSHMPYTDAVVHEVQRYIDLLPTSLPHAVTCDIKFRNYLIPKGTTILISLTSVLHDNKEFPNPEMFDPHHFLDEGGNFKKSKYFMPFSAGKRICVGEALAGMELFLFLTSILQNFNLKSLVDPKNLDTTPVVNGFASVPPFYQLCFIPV

COc1cccc(C(c2cc3c(cc2O)OCO3)N2CCOCC2)c1OC (stereo not given)
IC50 [1]: 6.43 µM (not active)

CCOc1ccc(C(C)NC(=O)c2ccccc2OCc2c(C)noc2C)cc1OCC (stereo not given)
AC50 (HeLa): 113 µM (active)

CC(C)(C)N1CCC1CN (stereo not given)
EC50 [2]: > 55.7 µM (not active) | EC50 [3]: > 55.7 µM (not active)

N#C/C(=C(/O)CCl)c1nc2c(s1)CCc1ccccc1-2
EC50 (Streptococcus): > 150 µM (not active) | EC50 (Streptokinase A): > 150 µM (not active) | EC50 [4]: > 150 µM (not active) | IC50 (Hexokinase HKDC1): 17.4 µM (active)

Cc1nc([N+](=O)[O-])cn1CCC#N
EC50 [2]: > 55.7 µM (not active) | EC50 [3]: > 55.7 µM (not active)

CC1CCN(CC(CS(=O)(=O)c2ccc([N+](=O)[O-])cc2)N2CCC(C)CC2)CC1 (stereo not given)
AC50 [5]: > 70 µM (inactive) | CC50 [6]: 7.41 µM (active) | AC50 [7]: > 70 µM (inactive) | AC50 [8]: 6.62 µM (active) | AC50 [9]: 1.59 µM (active)

O=C(CCN1C(=O)/C(=C/c2cccc(Br)c2)SC1=S)NNC(=O)c1cccnc1
EC50 [10]: 83.8 µM (not active) | AC50 (Cytochrome P450 2C9): 0.447 µM (inconclusive) | AC50 (Cytochrome P450 2C19): 1.58 µM (inconclusive)

CCN(C(=O)COC(=O)CCCOc1ccc(Cl)cc1C)c1c(N)n(Cc2ccccc2)c(=O)[nH]c1=O
AC50 (HeLa): 43.7 µM (active)

O=C1OC2(c3ccc(O)cc3Oc3cc(O)ccc32)c2ccccc21 [FLUORESCEIN]
IC50 [1]: 4.89 µM (not active)
